{"source": "patent US4410537A", "about": "“Pharmaceutical ethers” (Burroughts Wellcome Co., priority 1979, dated 1983)", "key": {"haemoglobin [1]": {"tested_on": "haemoglobin", "assay": "Effect on the oxygen-dissociation curve of whole homozygous human sickle-cell blood in vitro", "format": "cell-based", "protocol": "Compound (Ia) was dissolved in isotonic saline containing sodium bicarbonate 25 mM. […]\nHomozygous human sickle-cell blood (4 vols) was mixed with acid-citrate-dextrose anticoagulant (1 vol) and a portion of the mixture set aside as a control."}, "haemoglobin [2]": {"tested_on": "haemoglobin", "assay": "Effect on the oxygen-dissociation curve of whole rat blood in vivo", "details": "for Mean p50: 1 hour, rat", "protocol": "(§1) Compound (Ia) was dissolved in isotonic saline containing sodium bicarbonate 25 mM. […] The mixtures were incubated (30 mins, 37° C.) and the oxygen-dissociation curve for each then measured using a whole-blood spectrophotometer (Hem-O-Scan, Trade Name).\nFemale albino rats (100-120 g) were fasted for 24 hrs with water available ad lib. Compound (Ia) was dissolved in isotonic saline containing sodium bicarbonate 25 mM and administered to two rats orally (500 mg/kg) and to two rats intravenously (100 mg/kg): appropriate vehicle controls were administered simultaneously to control animals. After 1 hour all animals were exsanguinated via the abdominal aorta under chloroform anaesthesia: 2.5 ml of blood from each was mixed with disodium edetate (anticoagulant) and the oxygen-dissociation curve of each sample measured as in (A)."}, "[3]": {"assay": "Acute oral toxicity in mice", "details": "mouse, in vivo, solution in sodium bicarbonate-saline"}, "haemoglobin [4]": {"tested_on": "haemoglobin", "assay": "Effect on the oxygen-dissociation curve of whole rat blood in vitro", "format": "cell-based", "protocol": "as §1\nBlood (6.5 ml) from an adult albino rat, exsanguinated via the abdominal aorta under ether anaesthesia, was mixed with acid-citratedextrose anticoagulant (1.5 ml). […] Both samples were incubated (30 mins, 37° C.) and the oxygen-dissociation curve of each measured as in (A)."}, "anaesthetized rats": {"tested_on": "anaesthetized rats", "assay": "Cardiovascular effects in anaesthetized rats", "format": "in vivo, rat", "protocol": "Male Wistar rats weighing between 250-350 g were used. Anaesthesia was induced with 3-5% halothane in oxygen and maintained with a mixture of chloralose (60 mg/kg i.v.) and pentobarbitone (20 mg/kg i.v.). A femoral vein was cannulated for the administration of drugs and the ipsilateral femoral artery for measuring arterial blood pressure; heart rate was derived from the femoral pulse by a cardiotachometer. Body temperature was maintained at 38° C.\nFive test rats were each given a series of increasing doses of compound (Ia) as a solution in 10%-saturated sodium bicarbonate (saturated sodium bicarbonate solution diluted 1:9). Sufficient time was allowed between doses for the variables to return either to the pre-dose level or to a steady state if full recovery was not attained. Measurements were made 2 mins. after dose or at maximum effect.\nControl rats (3) were given a series of 0.2 ml. injections of the sodium bicarbonate vehicle (up to 15 injections) to assess any effect of sodium bicarbonate and of increasing extracellular fluid volume on blood pressure and heart rate."}, "[5]": {"tested_on": "whole homozygous human sickle-cell blood", "assay": "Effect on sickling in vitro of whole homozygous human sickle-cell blood", "format": "cell-based", "details": "3.0 mM, 60 mins, oxygen tension about 28 mm Hg; about 50% sickled at start; controls nearly 70%"}, "haemoglobin [6]": {"tested_on": "haemoglobin", "assay": "Effect on the oxygen-dissociation curve of whole normal human blood in vitro", "format": "cell-based", "details": "for Mean p50: normal human blood, 30 mins, 37° C., control 26.0", "protocol": "as §1"}}, "data": [{"molecule": "O=Cc1c(O)cccc1OCCCCC(=O)O", "note": "[Example 1, 5-(2-formyl-3-hydroxyphenoxy)pentanoic acid]", "values": [{"measurement": "Mean p50", "setting": "haemoglobin [1]; 3.0 mM, homozygous sickle-cell blood, 37° C., minimum 45 mins, three patients, control 51", "value": 10, "unit": "mm. Hg"}, {"measurement": "displacement of the oxygen-dissociation curve", "setting": "haemoglobin [1]; whole homozygous (SS genotype) human sickle-cell blood in vitro", "value": "considerable left-displacement"}, {"measurement": "Mean p50", "setting": "haemoglobin [2]; 100 mg/kg i.v., vehicle 43.37", "value": 22.37, "unit": "mm. Hg"}, {"measurement": "Mean p50", "setting": "haemoglobin [2]; 500 mg/kg p.o., vehicle 42.75", "value": 10.25, "unit": "mm. Hg"}, {"measurement": "displacement of the oxygen-dissociation curve", "setting": "haemoglobin [2]; whole rat blood in vivo", "value": "considerable left-displacement"}, {"measurement": "LD50", "setting": "[3]", "value": "~1000", "unit": "mg/kg"}, {"measurement": "Mean p50", "setting": "haemoglobin [4]; 3.0 mM, rat blood in vitro, 30 mins, 37° C., control 44.5", "value": 8.2, "unit": "mm. Hg"}, {"measurement": "displacement of the oxygen-dissociation curve", "setting": "haemoglobin [4]; whole rat blood in vitro", "value": "considerably left-displaced"}, {"measurement": "change in blood pressure", "setting": "anaesthetized rats; 32-128 mg/kg i.v., anaesthetized rats", "value": "Significant dose-dependent falls in pressure"}, {"measurement": "change in heart rate", "setting": "anaesthetized rats; after the 64 mg/kg dose, three rats, not statistically significant", "value": "slight tachycardia"}, {"measurement": "change in heart rate", "setting": "anaesthetized rats; anaesthetized rats, i.v.", "value": "no marked changes in heart rate"}, {"measurement": "time of blood pressure recovery after each dose", "setting": "anaesthetized rats; anaesthetized rats, i.v.", "value": "≤ 15", "unit": "min"}, {"measurement": "change in systolic, diastolic or mean blood pressures", "setting": "anaesthetized rats; up to 16 mg/kg i.v., anaesthetized rats", "value": "no appreciable change"}, {"measurement": "proportion of sickled cells", "setting": "[5]", "value": "about 3%"}, {"measurement": "Mean p50", "setting": "haemoglobin [6]; 0.3 mM", "value": 25.5, "unit": "mm. Hg"}, {"measurement": "Mean p50", "setting": "haemoglobin [6]; 1.0 mM", "value": 21.5, "unit": "mm. Hg"}, {"measurement": "Mean p50", "setting": "haemoglobin [6]; 3.0 mM", "value": 9.0, "unit": "mm. Hg"}, {"measurement": "displacement of the oxygen-dissociation curve", "setting": "haemoglobin [6]; whole normal human blood in vitro", "value": "dose-related left-displacement"}]}]}
